Here are results for one compound from patent publication US20230000088A1, “USE OF ALGINATES OLIGOMERS TO IMPROVE PLANT PROTECTION AGAINST PATHOGENS” (Université de Bourgogne, priority 2019, published 2023).

The subject of this assay is P. viticola. As to the kind of experiment: Protection of greenhouse vine plants against downy mildew (sporulating leaf area, leaf disks, 6 dpi). The format is in vivo, Plasmopara viticola. The conditions noted are these: A1 1 g/L, Pip 0.1 mM, alone or combined, FIG. 5. The procedure:
Grapevine (V. vinifera cv. Marselan) herbaceous cuttings were grown in individual pots (10×7×7 cm) containing a mixture of peat and perlite (4:1, vol/vol) in a greenhouse at 25±4 and 18±7° C. (day and night, respectively) until they developed 6-8 leaves. Artificial illumination was supplemented when the natural light was less than 200 μmol. m.^−2 s^−1 during the 16 h light period. Plants were watered with a fertilization solution (Topfert2 Plantin. France).
Alginates A1, A2, A3 with a degree of polymerization (DP) of 491, 228, 355 respectively were used. They were prepared at 1, 2 and 4 g/L in ultrapure water and applied to both the upper and lower faces of leaves until the point of run-off using a manual sprayer. Plants were maintained in the greenhouse in the conditions described above. Ultrapure water was used as negative control and sprayed in the same manner. […]
Briefly, 6 days post-inoculation (dpi), leaf disks were punched out and placed with the abaxial side uppermost, on a moist Whatman paper, in a closed plastic box. […] Disease intensity was assessed by measuring the leaf area covered by the pathogen sporulation using a “macro” developed for the image analysis Visilog 6.9 software (Noesis, France; Kim Khiook et al., 2013) and the disease reduction rate is calculated as follows: (1−(treated sporulating area/control sporulating area))×100. […]

As to `O=C(O)C1CCCCN1` (stereo not shown) [Pip, pipecolic acid], the “rate protection against P. viticola” value was “around 35%”.
